pIC50: −log10 of the molar value. Starred links: 1 amine or outer side, 2 acyl side, 3 side chain; linkers in the order of their positions; H or OH if unused. Positions of bridges follow the written chain, without caps; N, C: chain ends. Non-standard residues stand in square brackets, D forms with d. Residues, ends and D or L forms follow the SMILES beside them. *: point of attachment. Phe(4-(4-pyridyl)) = N[C@@H](Cc1ccc(-c2ccncc2)cc1)C(=O)O; Phe(3-OCH2COOH) = N[C@@H](Cc1cccc(OCC(=O)O)c1)C(=O)O; Phe(4-COOH) = N[C@@H](Cc1ccc(C(=O)O)cc1)C(=O)O; Trp(7-aza) = N[C@@H](Cc1c[nH]c2ncccc12)C(=O)O; Bip = N[C@@H](Cc1ccc(-c2ccccc2)cc1)C(=O)O; Gly(N(CH2)3COOH) = O=C(O)CCCNCC(=O)O; NMeY = CN[C@@H](Cc1ccc(O)cc1)C(=O)O; X1 = CCCCCCC[C@H](N[*:1])C(=O)[*:2]; Gly(cPent) = N[C@H](C(=O)O)C1CCCC1; NMeF = CN[C@@H](Cc1ccccc1)C(=O)O; Ahp(2) = CCCCC[C@H](N)C(=O)O; Carboxymethyl = O=C(O)C*; NMeA = CN[C@@H](C)C(=O)O; Sar = CNCC(=O)O
How the values were obtained:
Assay type in all cases: cell-based
Myostatin [1] = test: Reporter gene assay for myostatin signaling in HepG2 cell line, Evaluation Procedure (1), myostatin inhibition; settings: Method A; GDF-11 IC50 versus Myostatin IC50
Outline: (§1)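 HepG2 cells transfected with pGL3(CAGA)12-luciferase reporter, serum-starved in 0.1% BSA medium, then stimulated with myostatin or GDF-11 plus 4-fold peptide dilutions (0.006–100 nmol/L for myostatin, 0.12–2000 nmol/L for GDF-11) for 20–24 h at 37 °C. Luminescence read with One-Glo; IC50 calculated.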

Myostatin [2] = biological target: T1, Myostatin (Homo sapiens, UniProt O14793); test: as above; settings: Method A: Myostatin 10 ng/mL; read-out: IC50 (Luciferase) Myostatin HepG2
T1 construct: active myostatin (also called mature myostatin) is a homodimer consisting of two C-terminal growth factor domains; purchased R&D systems 788-G8/CF
T1 sequence (O14793 267-375): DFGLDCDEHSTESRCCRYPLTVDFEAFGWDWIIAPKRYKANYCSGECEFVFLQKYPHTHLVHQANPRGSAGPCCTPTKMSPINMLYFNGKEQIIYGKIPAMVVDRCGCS
Outline: as §1

GDF-11 = biological target: T2, GDF-11 (Homo sapiens, UniProt O95390); test: Reporter gene assay for myostatin signaling in HepG2 cell line, Evaluation Procedure (1), GDF-11 inhibition; settings: Method A: GDF-11 10 ng/mL; read-out: IC50 (Luciferase) GDF-11 HepG2
T2 construct: purchased R&D systems 1958-GD-G8/CF
T2 sequence (O95390 299-407): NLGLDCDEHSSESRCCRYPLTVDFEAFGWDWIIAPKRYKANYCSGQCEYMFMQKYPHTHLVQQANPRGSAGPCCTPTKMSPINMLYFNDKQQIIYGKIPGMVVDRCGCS
Outline: as §1

Row | Structure (SMILES) | pIC50 (Myostatin [2]) | pIC50 (GDF-11) | Selectivity (Myostatin [1])
1 | CCCCCCC[C@@H]1NC(=O)[C@H](Cc2ccccc2)N(C)C(=O)[C@H](CCCNC(=N)N)NC(=O)[C@H](Cc2ccc(C(=O)O)cc2)NC(=O)[C@H](Cc2cccc(OCC(=O)O)c2)NC(=O)CN(C)C(=O)[C@H]([C@@H](C)CC)NC(=O)[C@H](Cc2ccc(O)cc2)N(C)C(=O)[C@H](Cc2ccc(O)cc2)NC(=O)[C@H](Cc2ccc(-c3ccccc3)cc2)NC(=O)[C@H](C)NC(=O)CN(CCCC(=O)O)C(=O)CSC[C@H](C(=O)O)NC(=O)[C@H](Cc2ccccc2)N(C)C(=O)[C@H](C)N(C)C1=O [Myostatin_99_v117] ({CH2CO}-[Gly(N(CH2)3COOH)]A[Bip]Y[NMeY]I[Sar][Phe(3-OCH2COOH)][Phe(4-COOH)]R[NMeF][X1][NMeA][NMeF][dC]-OH; thioether N-15) | 8.77 | 6.15 | 419
2 | CC[C@H](C)[C@@H]1NC(=O)[C@H](Cc2ccccc2)N(C)C(=O)[C@H](Cc2ccc(O)cc2)NC(=O)[C@H](Cc2ccc(-c3ccncc3)cc2)NC(=O)[C@H](C)NC(=O)CN(CCCC(=O)O)C(=O)CSC[C@H](C(N)=O)NC(=O)[C@H](Cc2ccccc2)N(C)C(=O)[C@H](C)N(C)C(=O)[C@H](CC(C)C)NC(=O)[C@H](Cc2ccccc2)N(C)C(=O)[C@H](CCCNC(=N)N)NC(=O)[C@H](Cc2ccc(OCC(=O)O)cc2)NC(=O)[C@H](Cc2cccc(OCC(=O)O)c2)NC(=O)[C@H](C)N(C)C1=O [Myostatin_99_v123] ({CH2CO}-[Gly(N(CH2)3COOH)]A[Phe(4-(4-pyridyl))]Y[NMeF]I[NMeA][Phe(3-OCH2COOH)]Y(Carboxymethyl)R[NMeF]L[NMeA][NMeF][dC]-NH2; thioether N-15) | 7.42 | 5.13 | 194
3 | CC[C@H](C)[C@@H]1NC(=O)[C@H](Cc2ccccc2)N(C)C(=O)[C@H](Cc2ccc(O)cc2)NC(=O)[C@H](Cc2c[nH]c3ccccc23)NC(=O)[C@H](C)NC(=O)CN(CCCC(=O)O)C(=O)CSC[C@H](C(=O)O)NC(=O)[C@H](Cc2ccccc2)N(C)C(=O)[C@H](C)N(C)C(=O)[C@H](CC(C)C)NC(=O)[C@H](Cc2ccccc2)N(C)C(=O)[C@H](CCCNC(=N)N)NC(=O)[C@H](Cc2ccc(C(=O)O)cc2)NC(=O)[C@H](Cc2cccc(OCC(=O)O)c2)NC(=O)[C@H](C)N(C)C1=O [Myostatin_99_v144] ({CH2CO}-[Gly(N(CH2)3COOH)]AWY[NMeF]I[NMeA][Phe(3-OCH2COOH)][Phe(4-COOH)]R[NMeF]L[NMeA][NMeF][dC]-OH; thioether N-15) | 7.79 | 5.56 | 169
4 | CCCCCCC[C@@H]1NC(=O)[C@H](Cc2ccccc2)N(C)C(=O)[C@H](CCCNC(=N)N)NC(=O)[C@H](Cc2ccc(OCC(=O)O)cc2)NC(=O)[C@H](Cc2cccc(OCC(=O)O)c2)NC(=O)[C@H](C)N(C)C(=O)[C@H]([C@@H](C)CC)NC(=O)[C@H](Cc2ccccc2)N(C)C(=O)[C@H](Cc2ccc(O)cc2)NC(=O)[C@H](Cc2c[nH]c3ccccc23)NC(=O)[C@H](C)NC(=O)CN(CCCC(=O)O)C(=O)CSC[C@H](C(=O)O)NC(=O)[C@H](Cc2ccccc2)N(C)C(=O)[C@H](C)N(C)C1=O [Myostatin_99_v150] ({CH2CO}-[Gly(N(CH2)3COOH)]AWY[NMeF]I[NMeA][Phe(3-OCH2COOH)]Y(Carboxymethyl)R[NMeF][X1][NMeA][NMeF][dC]-OH; thioether N-15) | 8.77 | 6.40 | 232
5 | CC[C@H](C)[C@@H]1NC(=O)[C@H](Cc2ccccc2)N(C)C(=O)[C@H](Cc2ccc(O)cc2)NC(=O)[C@H](Cc2c[nH]c3ccccc23)NC(=O)[C@H](C)NC(=O)CN(CCCC(=O)O)C(=O)CSC[C@H](C(=O)O)NC(=O)[C@H](Cc2ccccc2)N(C)C(=O)[C@H](C)N(C)C(=O)[C@H](CC(C)C)NC(=O)[C@H](Cc2ccccc2)N(C)C(=O)[C@H](CCCNC(=N)N)NC(=O)[C@H](Cc2ccc(C(=O)O)cc2)NC(=O)[C@H](Cc2cccc(OCC(=O)O)c2)NC(=O)CN(C)C1=O [Myostatin_99_v156] ({CH2CO}-[Gly(N(CH2)3COOH)]AWY[NMeF]I[Sar][Phe(3-OCH2COOH)][Phe(4-COOH)]R[NMeF]L[NMeA][NMeF][dC]-OH; thioether N-15) | 7.16 | 5.32 | 70

The remaining compounds from weak to strong by pIC50 (Myostatin [2]), led by results:

Row | pIC50 (Myostatin [2]) | pIC50 (GDF-11) | Structure (SMILES) | Selectivity (Myostatin [1])
6 | 7.21 | 5.19 | CC[C@H](C)[C@@H]1NC(=O)[C@H](Cc2ccccc2)N(C)C(=O)[C@H](Cc2ccc(O)cc2)NC(=O)[C@H](Cc2c[nH]c3ccccc23)NC(=O)[C@H](CO)NC(=O)CN(CCCC(=O)O)C(=O)CSC[C@H](C(=O)O)NC(=O)[C@H](Cc2ccccc2)N(C)C(=O)[C@H](C)N(C)C(=O)[C@H](CC(C)C)NC(=O)[C@H](Cc2ccccc2)N(C)C(=O)[C@H](CCCNC(=N)N)NC(=O)[C@H](Cc2ccc(C(=O)O)cc2)NC(=O)[C@H](Cc2cccc(OCC(=O)O)c2)NC(=O)[C@H](C)N(C)C1=O [Myostatin_99_v158] ({CH2CO}-[Gly(N(CH2)3COOH)]SWY[NMeF]I[NMeA][Phe(3-OCH2COOH)][Phe(4-COOH)]R[NMeF]L[NMeA][NMeF][dC]-OH; thioether N-15) | 104
7 | 7.65 | 5.48 | CC(C)C[C@@H]1NC(=O)[C@H](Cc2ccccc2)N(C)C(=O)[C@H](CCCNC(=N)N)NC(=O)[C@H](Cc2ccc(OCC(=O)O)cc2)NC(=O)[C@H](Cc2cccc(OCC(=O)O)c2)NC(=O)[C@H](C)N(C)C(=O)[C@H](C2CCCC2)NC(=O)[C@H](Cc2ccccc2)N(C)C(=O)[C@H](Cc2ccc(O)cc2)NC(=O)[C@H](Cc2ccc(-c3ccncc3)cc2)NC(=O)[C@H](C)NC(=O)CN(CCCC(=O)O)C(=O)CSC[C@H](C(=O)O)NC(=O)[C@H](Cc2ccccc2)N(C)C(=O)[C@H](C)N(C)C1=O [Myostatin_99_v135] ({CH2CO}-[Gly(N(CH2)3COOH)]A[Phe(4-(4-pyridyl))]Y[NMeF][Gly(cPent)][NMeA][Phe(3-OCH2COOH)]Y(Carboxymethyl)R[NMeF]L[NMeA][NMeF][dC]-OH; thioether N-15) | 145
8 | 7.77 | 5.64 | CC[C@H](C)[C@@H]1NC(=O)[C@H](Cc2ccccc2)N(C)C(=O)[C@H](Cc2ccc(O)cc2)NC(=O)[C@H](Cc2c[nH]c3ccccc23)NC(=O)[C@H](C)NC(=O)CN(CCCC(=O)O)C(=O)CSC[C@H](C(=O)O)NC(=O)[C@H](Cc2ccccc2)N(C)C(=O)[C@H](C)N(C)C(=O)[C@H](CC(C)C)NC(=O)[C@H](Cc2ccccc2)N(C)C(=O)[C@H](CCCNC(=N)N)NC(=O)[C@H](Cc2ccc(OCC(=O)O)cc2)NC(=O)[C@H](Cc2cccc(OCC(=O)O)c2)NC(=O)[C@H](C)N(C)C1=O [Myostatin_99_v124] ({CH2CO}-[Gly(N(CH2)3COOH)]AWY[NMeF]I[NMeA][Phe(3-OCH2COOH)]Y(Carboxymethyl)R[NMeF]L[NMeA][NMeF][dC]-OH; thioether N-15) | 133
9 | 8.27 | 5.71 | CCCCC[C@@H]1NC(=O)[C@H](Cc2ccccc2)N(C)C(=O)[C@H](CCCNC(=N)N)NC(=O)[C@H](Cc2ccc(C(=O)O)cc2)NC(=O)[C@H](Cc2cccc(OCC(=O)O)c2)NC(=O)CN(C)C(=O)[C@H]([C@@H](C)CC)NC(=O)[C@H](Cc2ccc(O)cc2)N(C)C(=O)[C@H](Cc2ccc(O)cc2)NC(=O)[C@H](Cc2ccc(-c3ccccc3)cc2)NC(=O)[C@H](C)NC(=O)CN(CCCC(=O)O)C(=O)CSC[C@H](C(=O)O)NC(=O)[C@H](Cc2ccccc2)N(C)C(=O)[C@H](C)N(C)C1=O [Myostatin_99_v116] ({CH2CO}-[Gly(N(CH2)3COOH)]A[Bip]Y[NMeY]I[Sar][Phe(3-OCH2COOH)][Phe(4-COOH)]R[NMeF][Ahp(2)][NMeA][NMeF][dC]-OH; thioether N-15) | 364
10 | 8.82 | 6.36 | CCCCCCC[C@@H]1NC(=O)[C@H](Cc2ccccc2)N(C)C(=O)[C@H](CCCNC(=N)N)NC(=O)[C@H](Cc2ccc(C(=O)O)cc2)NC(=O)[C@H](Cc2cccc(OCC(=O)O)c2)NC(=O)[C@H](C)N(C)C(=O)[C@H]([C@@H](C)CC)NC(=O)[C@H](Cc2ccccc2)N(C)C(=O)[C@H](Cc2ccc(O)cc2)NC(=O)[C@H](Cc2c[nH]c3ncccc23)NC(=O)[C@H](C)NC(=O)CN(CCCC(=O)O)C(=O)CSC[C@H](C(=O)O)NC(=O)[C@H](Cc2ccccc2)N(C)C(=O)[C@H](C)N(C)C1=O [Myostatin_99_v148] ({CH2CO}-[Gly(N(CH2)3COOH)]A[Trp(7-aza)]Y[NMeF]I[NMeA][Phe(3-OCH2COOH)][Phe(4-COOH)]R[NMeF][X1][NMeA][NMeF][dC]-OH; thioether N-15) | 293
11 | 8.92 | 6.57 | CCCCCCC[C@@H]1NC(=O)[C@H](Cc2ccccc2)N(C)C(=O)[C@H](CCCNC(=N)N)NC(=O)[C@H](Cc2ccc(OCC(=O)O)cc2)NC(=O)[C@H](Cc2cccc(OCC(=O)O)c2)NC(=O)[C@H](C)N(C)C(=O)[C@H]([C@@H](C)CC)NC(=O)[C@H](Cc2ccccc2)N(C)C(=O)[C@H](Cc2ccc(O)cc2)NC(=O)[C@H](Cc2c[nH]c3ncccc23)NC(=O)[C@H](C)NC(=O)CN(CCCC(=O)O)C(=O)CSC[C@H](C(=O)O)NC(=O)[C@H](Cc2ccccc2)N(C)C(=O)[C@H](C)N(C)C1=O [Myostatin_99_v153] ({CH2CO}-[Gly(N(CH2)3COOH)]A[Trp(7-aza)]Y[NMeF]I[NMeA][Phe(3-OCH2COOH)]Y(Carboxymethyl)R[NMeF][X1][NMeA][NMeF][dC]-OH; thioether N-15) | 222

— EP4786487A1, “PEPTIDE” (Peptidream Inc, priority 2023, dated 2025)
